Laboratory results from a melting point compilation (Tetko et al.; mined from patent text by program, amines drawn as free bases though some values may be those of a salt).

| melting point | SMILES |
| --- | --- |
| 120 to 122 °C | CCN(CC)c1cccc2nc3n(c12)CC(OC)CCN3c1ccc(Cl)cc1Cl (stereo not drawn) |
| > 230 °C | O=C1NCCCN1c1cc(C(c2cc(F)ccc2F)S(=O)(=O)c2ccc(Cl)cc2)c(Cl)cn1 (stereo not drawn) |
| 206 to 210 °C | CN1C(=O)CC[C@]2(C)c3ccc(Sc4nc5c(Br)cccc5s4)cc3CC[C@@H]12 |
| 172 °C | O=C(COc1cc(-c2ccc([N+](=O)[O-])cc2)nc2ccccc12)N1CCOCC1 |
| 171 to 178 °C | Cc1nc2cc(S(=O)(=O)n3c(CCCC(=O)O)cc4cc(C(F)(F)F)ccc43)ccc2s1 |
| 184 to 185 °C | O=C(COc1ccc(-c2ccccc2-c2nn[nH]n2)cc1)C1CC1 |
| 126 to 127 °C | CN1C(=O)Cc2cc3ccccc3cc2S1(=O)=O |
| 168 to 171 °C | Nc1cc(Cl)cc(Cl)c1C(=O)NCC1CCCCC1 |
| 209 °C | CCN1CCC(C(=O)O)(S(=O)(=O)c2ccc(OC)cc2)CC1 |
| 117 to 120 °C | CCc1ccc(C(=O)O)c(N)c1 |
| 150 to 151 °C | CN1C(=O)CC[C@]2(C)c3ccc(-c4c(F)c(F)c(Cl)c(F)c4F)cc3CC[C@@H]12 |
| 62.5 °C | COC(=O)C1=C(C)OC(C)=C(C(=O)OC)C1c1ccccc1 |
| 214 to 216 °C | O=C(O)Cn1c(Cc2ccccc2)ccc(NC(=O)CCc2ccccc2)c1=O |
| 181 to 183 °C | O=P(O)(O)C(F)(F)c1ccc(CN(Cc2ccc(C(F)(F)P(=O)(O)O)cc2)S(=O)(=O)CCc2ccccc2)cc1 |
| 230 to 234 °C | CCOC(=O)C(=O)c1csc(NC(=O)Nc2ccc(Cl)cc2)n1 |
| 49 to 50 °C | CCCc1cc2cc(OC)ccc2[nH]1 |
| 117 to 119 °C | CCc1nc2c(cnn2CC)c(NC2CCOCC2)c1CNC(=O)c1cc(C)cc(C(=O)NCc2ccc(OC)c(-c3cccc(C=O)c3)c2)c1 |
| 127 to 128 °C | CCCCCCCCCCCCCCCc1cc2cc(C(=O)O)ccc2n1C |
| 185 to 187 °C | COc1c(C=CC(=O)c2ccc(O)cc2)ccc(O)c1C |
| 75 to 77 °C | COC(=O)C=CC(=O)N[C@@H](CO)c1ccccc1 |
| 90 to 91 °C | O=C1NCC(Cc2ccccc2OCc2ccccc2)O1 (stereo not drawn) |
| 175 to 177 °C | COC(=O)c1ccc(Cn2c(=O)c3cc(C(=O)NCc4cccc(OC)c4)sc3n(C)c2=O)cc1C |
| 168 to 169 °C | Cc1ccc(N(C)S(=O)(=O)c2cccs2)c2[nH]c(C3=NCC(CCO)S3)cc12 (stereo not drawn) |

| melting point | SMILES |
| --- | --- |
| 189 to 191 °C | CCc1c(C(F)(F)F)nn(-c2ccc(S(N)(=O)=O)nc2)c1-c1ccc(-c2cncs2)c(F)c1 |
| 65 °C | CCCCCC(=O)N(C)Cc1cc(-c2ccc(C[C@H](OCC)C(=O)O)cc2)cs1 |
| 136 to 140 °C | Cn1nc2ccccc2c1C(=O)NCCCN1CCC(c2ccc(F)cc2)CC1 |
| 181 to 182 °C | CCOC(=O)Nc1[nH]c2ccc(Sc3ccccc3)cc2c1C#N |
| 299 to 302 °C | COc1ccc(N2CCOCC2)c2sc(-c3nc4c([nH]3)CCN(CC(N)=O)CC4)nc12 |
| 134 to 137 °C | CCc1cccc(CC)c1NC(=O)c1c2n(c(C)cc1=O)CCCC2 |
| 184 to 185 °C | CCOc1ccc(C(=O)Nc2ccccc2)cc1Nc1cccc(C(F)(F)F)c1 |
| 102 to 106 °C | COC(OC)C1(C)CCc2c(C)c(O)c(C)c(C)c2O1 (stereo not drawn) |
| 195 to 197 °C | COc1ccc2c(O)cc(=O)oc2c1C |
| 137 to 139 °C | Cc1oc(-c2ccc(C(F)(F)F)cc2)nc1CCOc1c(Cl)cc(CN(O)C(N)=O)cc1Cl |
| 142 to 144 °C | O=S(=O)(Cl)c1ccc2c(c1)oc1ccccc12 |
| > 300 °C | Cc1cc2nc(O)nc(O)c2s1 |
| 200 °C | O=C(/C=C/c1cccc(S(=O)(=O)N2CCN(c3ncccn3)CC2)c1)NO |
| 169 °C | CC(=O)c1cc(O)c(-c2ccccc2)cc1O |
| 189 °C | COc1cc(N)c([N+](=O)[O-])cc1I |
| 115 to 117 °C | COC(=O)c1cc(-c2ccc(S(C)(=O)=O)cc2)n(C2CCCCCC2)n1 |
| 164 to 166 °C | O=C1N(Cc2nc3ccccc3s2)c2ccccc2C12COc1cc3c(cc12)OCCO3 (stereo not drawn) |
| 228 to 229 °C | CCc1noc(-c2cn(-c3ccc([N+](=O)[O-])cn3)cn2)n1 |
| 125 to 128 °C | Cc1cc(C)c(NC(=O)N(Cc2cc3ccccc3c3ccccc23)C2CCCCC2)c(C)c1 |
| 52 to 56 °C | O=C(O)C1=CCC2CC(=O)C12 (stereo not drawn) |
| 86 to 87 °C | CC(=O)C=Cc1c(C)c(C)c2c(c1C)CC(C)(C)O2 |
| 145 to 147 °C | COc1ccc2[nH]nc(N3CCN(CCCc4c(C)[nH]c5ccccc45)CC3)c2c1 |
| 105 to 106 °C | Cc1oc(-c2ccco2)nc1COc1ccc(C#N)cn1 |

| melting point | SMILES |
| --- | --- |
| 85 to 87 °C | CN1CCNCCNCCCNCCNCC1 |
| 284 to 286 °C | CS(=O)(=O)c1cc(C(=O)O)c(N)cc1Cl |
| 216 to 218 °C | CC(C)C(NC(=O)CCc1ccccn1)C(=O)NC(Cc1ccccc1)C(O)C(Cc1ccccc1)NC(=O)C(NC(=O)CCc1ccccn1)C(C)C (stereo not drawn) |
| 86 to 88 °C | CS(=O)(=O)Nc1ccc(OCCCc2ccc(OCCCCOc3ccccc3)cc2)c(C(=O)O)c1 |
| 190 to 192 °C | O=C(O)c1cccc(-c2nc3cc(N4CCCC4=O)ccc3o2)c1 |
| 82 to 83 °C | COc1ccc(S(=O)(=O)NCCc2ccc(OCC(=O)O)cc2)cc1 |
| 110 to 119 °C | CC(=O)Oc1cc(N2C(=O)C=CC2=O)ccc1C(=O)O |
| 216 to 217 °C | CN1C(=O)NCc2cc(Br)cnc21 |
| 82 °C | CCOC(=O)CC(NS(=O)(=O)c1cccc(-c2cccc(NC(=NC#N)NCc3ccccn3)c2)c1)c1ccccc1 (stereo not drawn) |
| 121 to 122 °C | Cc1c(O[Si](C)(C)C(C)(C)C)cc(O[Si](C)(C)C(C)(C)C)c(C)c1C(=O)OCc1ccc([N+](=O)[O-])cc1 |
| 192 to 194 °C | CC(C)(C)c1cc(-c2nn(CCCC(=O)O)c3ncccc23)cc(C(C)(C)C)c1O |
| 147 to 148 °C | COc1cc(OCc2nc(-c3ccco3)oc2C)ccc1COc1nn(Cc2ccccc2)cc1C=O |
| 146 to 148 °C | N#Cc1cnn2c1NCCC2c1cccc(F)c1 (stereo not drawn) |
| 105 °C | C1=C(CCc2ccco2)CCN(Cc2c[nH]c3ncccc23)C1 |
| 129 to 130 °C | CCOC(=O)C(C)(C(=O)OCC)C1CCCC(=O)C1 (stereo not drawn) |
| 54 to 56 °C | CSc1c(C)c(-c2cc(OS(=O)(=O)C(F)(F)F)c(Cl)cc2F)nn1C |
| 154 °C | CCOC(=O)CCC1Cn2c(-c3ccc(OC)cc3)c(C)c3cccc(c32)O1 (stereo not drawn) |
| 249 to 251 °C | COC(=O)C1=C(C)NC(C)=C(P2(=O)OCCCO2)C1c1ccccc1[N+](=O)[O-] (stereo not drawn) |
| 145 to 147 °C | CSc1nnc(N(C(=O)CCl)c2c(C)cccc2C)n1C |
| 65 to 70 °C | COc1ccc(CCCC2CCNCC2)cc1 |
| 173 to 174 °C | Cn1c(=O)c(-c2c(Cl)cccc2Cl)cc2cnc(NCCc3ccccn3)nc21 |
| 200 to 204 °C | CCCn1c(=O)c2c(nc(/C=C/c3ccc(OC)c(O)c3)n2C)n(CCC)c1=O |
| 122 °C | CC(NC(=O)OC(C#N)c1cccc(Oc2ccccc2)c1)c1cccc2ccccc12 (stereo not drawn) |

| melting point | SMILES |
| --- | --- |
| 67 to 68 °C | CC(=O)CC1(C)C=NC=CN1c1ccccc1 (stereo not drawn) |
| 197 to 198 °C | O=C(CC1CCN(Cc2ccccc2)CC1)c1ccc(O)cc1 |
| 51 to 54 °C | O=Cc1ccc(OCc2cccc(Cl)c2)cc1 |
| 250 to 252 °C | Cc1cc(=O)n(-c2cccc(Cl)c2)c(=O)[nH]1 |
| 95 to 96 °C | Cc1ccc(S(=O)(=O)NCCCCSc2ccc(NS(C)(=O)=O)cc2)cc1 |
| 108 to 110 °C | CC[C@@H](c1ccccc1)N(Cc1ccc(C(=O)OC)cc1)S(=O)(=O)c1ccc(Cl)cc1 |
| 319 to 323 °C | CN1CCC(=C2c3ccccc3Sc3ccc(C(=O)O)cc32)CC1 |
| 44 to 46 °C | O=C(CBr)c1ccc(Cl)c(Cl)c1Cl |
| 85 °C | C=CCOc1ccc(OC(C(O)C(C)(C)C)n2cncn2)cc1 (stereo not drawn) |
| 73 to 75 °C | O=C(COc1cccnc1)C12CC3CC(CC(C3)C1)C2 |
| 254 to 255 °C | CS(=O)(=O)c1ccc(-c2n[nH]c(=O)cc2-c2ccc(Cl)cc2)cc1 |
| 172 to 173 °C | CNC(=NCCn1cc(Cn2ccnc2)c2ccccc21)NC#N |
| 226 to 227 °C | CC(C)(C)C(NC(=O)c1cccc(Cl)c1)Nc1c(Nc2ccc(C(F)(F)F)nc2)c(=O)c1=O (stereo not drawn) |
| 180 °C | O=C(O)CCCn1c(=O)[nH]c2ccccc21 |
| 130 to 131 °C | COC(=O)c1cc(C(C)=O)c(OC(C)=O)cc1NC(=O)C(F)(F)F |
| 112 °C | CCOC(=O)Cn1c(CC)nc2c(OCc3ccc(OC)cc3)cccc21 |
| 206 to 207 °C | O=[N+]([O-])c1cccc(-c2cccc([N+](=O)[O-])n2)n1 |
| 96 °C | Cc1cc(F)ccc1-c1ccc(S(=O)(=O)N2c3ccccc3CC2C(=O)NCCOc2ccc(C(=O)O)cc2)cc1 (stereo not drawn) |
| > 250 °C | O=Cc1c[nH]c2c1ccc1c2[nH]c2cccc(Br)c21 |
| 211 to 212 °C | CCS(=O)(=O)Nc1cc(C2(NC)NC=NC=C2Cl)c(F)cc1C#N (stereo not drawn) |
| 129 to 130 °C | CC(C)Oc1ccc(CCC(=O)NS(=O)(=O)c2ccccc2)c(Oc2ncc(C(F)(F)F)cc2Cl)c1 |
| 91.5 to 92.5 °C | COc1ccc(C2CCC(=O)N2c2ccc(OC)cc2)cc1 (stereo not drawn) |

| SMILES | melting point |
| --- | --- |
| CCCc1c(C(=O)C(C)C)c2ccc(C(=O)OC)cc2n1Cc1ccccc1C#N | 159 to 161 °C |
| COC(=O)c1nc(CN2CCOCC2)n(-c2ccc(Cl)cc2C(=O)c2ccccc2Cl)n1 | 141 to 143 °C |
| Cc1cc(Cl)cc(C(=O)NC(C)(C#N)C2CC2)c1NC(=O)c1cc(C(F)(F)F)nn1-c1ncccc1Cl (stereo not drawn) | 226 to 228 °C |
| N#Cc1ccc(N2C(=O)C3C(F)CCN3C2=O)c2ccccc12 (stereo not drawn) | 228 to 230 °C |
| CCN(c1nc(F)ccc1[N+](=O)[O-])C1CCN(Cc2ccccc2)CC1 | 99 to 100 °C |
| CNC(=O)CONC(=O)c1cc(Br)cc(Br)c1NC(=O)c1cc(Br)nn1-c1ncccc1Cl | 220 to 221 °C |
| CCOC(=O)CN(CP(=S)(Oc1ccccc1)Oc1ccccc1)C(=O)C(F)(F)F | 50 to 52 °C |
